# Test results published in PubChem BioAssay (NCI).
#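 Here, GI50 denotes the concentration required for 50% inhibition of growth. TGI: total growth inhibition.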
# Legend:
# Assay in all cases: NCI-60 cell line screen, 384-well format
# PC-3 prostate = tested on: PC-3 prostate
# OVCAR-4 ovarian = tested on: OVCAR-4 ovarian
# M14 melanoma = tested on: M14 melanoma
# HS 578T breast = tested on: HS 578T breast
# OVCAR-5 ovarian = tested on: OVCAR-5 ovarian
# ACHN renal = tested on: ACHN renal
# IGROV1 ovarian = tested on: IGROV1 ovarian
# U251 glioblastoma = tested on: U251 glioblastoma
# A549 NSCLC = tested on: A549 NSCLC
# NCI-H460 NSCLC = tested on: NCI-H460 NSCLC
# MDA-MB-231 breast = tested on: MDA-MB-231 breast
# UO-31 renal = tested on: UO-31 renal
# HOP-92 NSCLC = tested on: HOP-92 NSCLC
# SF-268 CNS = tested on: SF-268 CNS
# A498 renal = tested on: A498 renal
# MDA-MB-468 breast = tested on: MDA-MB-468 breast
# NCI-H322M lung = tested on: NCI-H322M lung
# NCI-H23 lung = tested on: NCI-H23 lung
# SK-OV-3 ovarian = tested on: SK-OV-3 ovarian
# KM12 colon = tested on: KM12 colon
# SF-539 CNS = tested on: SF-539 CNS
# SF-295 CNS = tested on: SF-295 CNS
# SK-MEL-5 melanoma = tested on: SK-MEL-5 melanoma
# HCC-2998 colon = tested on: HCC-2998 colon
# NCI/ADR-RES ovarian = tested on: NCI/ADR-RES ovarian
# UACC-62 melanoma = tested on: UACC-62 melanoma
# HCT-15 colon = tested on: HCT-15 colon
# TK-10 renal = tested on: TK-10 renal
# LOX IMVI melanoma = tested on: LOX IMVI melanoma
# HT29 colon = tested on: HT29 colon
# NCI-H522 lung = tested on: NCI-H522 lung
# MCF7 breast = tested on: MCF7 breast
# SNB-19 CNS = tested on: SNB-19 CNS
# CAKI-1 renal = tested on: CAKI-1 renal
# SNB-75 CNS = tested on: SNB-75 CNS
# HL-60(TB) leukemia = tested on: HL-60(TB) leukemia
# HOP-62 NSCLC = tested on: HOP-62 NSCLC
# K-562 leukemia = tested on: K-562 leukemia
# OVCAR-8 ovarian = tested on: OVCAR-8 ovarian
# OVCAR-3 ovarian = tested on: OVCAR-3 ovarian
# RXF 393 renal = tested on: RXF 393 renal
# 786-0 renal = tested on: 786-0 renal
# MALME-3M melanoma = tested on: MALME-3M melanoma
# CCRF-CEM leukemia = tested on: CCRF-CEM leukemia
# MDA-MB-435 melanoma = tested on: MDA-MB-435 melanoma
# DU-145 prostate = tested on: DU-145 prostate
# SR leukemia = tested on: SR leukemia
# SW-620 colon = tested on: SW-620 colon
# UACC-257 melanoma = tested on: UACC-257 melanoma
# SK-MEL-28 melanoma = tested on: SK-MEL-28 melanoma
# EKVX NSCLC = tested on: EKVX NSCLC
# BT-549 breast = tested on: BT-549 breast
# SN12C renal = tested on: SN12C renal
# MOLT-4 leukemia = tested on: MOLT-4 leukemia
# NCI-H226 lung = tested on: NCI-H226 lung
# T-47D breast = tested on: T-47D breast
# RPMI-8226 leukemia = tested on: RPMI-8226 leukemia
# COLO 205 colon = tested on: COLO 205 colon
compound,measurement,setting,value
C=CC(=O)Nc1cccc(Oc2nc(Nc3ccc(N4CCN(C)CC4)cc3OC)ncc2Cl)c1,GI50,PC-3 prostate,1700 nM
same,TGI,PC-3 prostate,3140 nM
same,GI50,OVCAR-4 ovarian,1540 nM
same,TGI,OVCAR-4 ovarian,4150 nM
same,GI50,M14 melanoma,1770 nM
same,TGI,M14 melanoma,3160 nM
same,GI50,HS 578T breast,1370 nM
same,TGI,HS 578T breast,2670 nM
same,GI50,OVCAR-5 ovarian,1550 nM
same,TGI,OVCAR-5 ovarian,3390 nM
same,GI50,ACHN renal,440 nM
same,TGI,ACHN renal,1710 nM
same,GI50,IGROV1 ovarian,754 nM
same,TGI,IGROV1 ovarian,2040 nM
same,GI50,U251 glioblastoma,1690 nM
same,TGI,U251 glioblastoma,3090 nM
same,GI50,A549 NSCLC,1230 nM
same,TGI,A549 NSCLC,2480 nM
same,GI50,NCI-H460 NSCLC,1640 nM
same,TGI,NCI-H460 NSCLC,3020 nM
same,GI50,MDA-MB-231 breast,1560 nM
same,TGI,MDA-MB-231 breast,2950 nM
same,GI50,UO-31 renal,1350 nM
same,TGI,UO-31 renal,2660 nM
same,GI50,HOP-92 NSCLC,1100 nM
same,TGI,HOP-92 NSCLC,2340 nM
same,GI50,SF-268 CNS,1460 nM
same,TGI,SF-268 CNS,2790 nM
same,GI50,A498 renal,517 nM
same,TGI,A498 renal,1890 nM
same,GI50,MDA-MB-468 breast,16.7 nM
same,TGI,MDA-MB-468 breast,90.9 nM
same,GI50,NCI-H322M lung,354 nM
same,TGI,NCI-H322M lung,1670 nM
same,GI50,NCI-H23 lung,1830 nM
same,TGI,NCI-H23 lung,3860 nM
same,GI50,SK-OV-3 ovarian,1040 nM
same,TGI,SK-OV-3 ovarian,2230 nM
same,GI50,KM12 colon,1700 nM
same,TGI,KM12 colon,3090 nM
same,GI50,SF-539 CNS,1540 nM
same,TGI,SF-539 CNS,2880 nM
same,GI50,SF-295 CNS,1870 nM
same,TGI,SF-295 CNS,3450 nM
same,GI50,SK-MEL-5 melanoma,1570 nM
same,TGI,SK-MEL-5 melanoma,2920 nM
same,GI50,HCC-2998 colon,1570 nM
same,TGI,HCC-2998 colon,2930 nM
same,GI50,NCI/ADR-RES ovarian,1510 nM
same,TGI,NCI/ADR-RES ovarian,2850 nM
same,GI50,UACC-62 melanoma,1560 nM
same,TGI,UACC-62 melanoma,2900 nM
same,GI50,HCT-15 colon,1340 nM
same,TGI,HCT-15 colon,2640 nM
same,GI50,TK-10 renal,788 nM
same,TGI,TK-10 renal,2060 nM
same,GI50,LOX IMVI melanoma,1660 nM
same,TGI,LOX IMVI melanoma,3030 nM
same,GI50,HT29 colon,1650 nM
same,TGI,HT29 colon,3020 nM
same,GI50,NCI-H522 lung,257 nM
same,TGI,NCI-H522 lung,1250 nM
same,GI50,MCF7 breast,1140 nM
same,TGI,MCF7 breast,2360 nM
same,GI50,SNB-19 CNS,2600 nM
same,TGI,SNB-19 CNS,8340 nM
same,GI50,CAKI-1 renal,765 nM
same,TGI,CAKI-1 renal,2050 nM
same,GI50,SNB-75 CNS,1440 nM
same,TGI,SNB-75 CNS,2890 nM
same,GI50,HL-60(TB) leukemia,1070 nM
same,TGI,HL-60(TB) leukemia,2260 nM
same,GI50,HOP-62 NSCLC,1800 nM
same,TGI,HOP-62 NSCLC,3510 nM
same,GI50,K-562 leukemia,1630 nM
same,TGI,K-562 leukemia,3000 nM
same,GI50,OVCAR-8 ovarian,1440 nM
same,TGI,OVCAR-8 ovarian,2760 nM
same,GI50,OVCAR-3 ovarian,1250 nM
same,TGI,OVCAR-3 ovarian,2520 nM
same,GI50,RXF 393 renal,1290 nM
same,TGI,RXF 393 renal,2570 nM
same,GI50,786-0 renal,1180 nM
same,TGI,786-0 renal,2420 nM
same,GI50,MALME-3M melanoma,1530 nM
same,TGI,MALME-3M melanoma,2860 nM
same,GI50,CCRF-CEM leukemia,1420 nM
same,TGI,CCRF-CEM leukemia,2720 nM
same,GI50,MDA-MB-435 melanoma,1710 nM
same,TGI,MDA-MB-435 melanoma,3100 nM
same,GI50,DU-145 prostate,1320 nM
same,TGI,DU-145 prostate,3080 nM
same,GI50,SR leukemia,1560 nM
same,TGI,SR leukemia,2890 nM
same,GI50,SW-620 colon,1720 nM
same,TGI,SW-620 colon,3110 nM
same,GI50,UACC-257 melanoma,1210 nM
same,TGI,UACC-257 melanoma,2460 nM
same,GI50,SK-MEL-28 melanoma,1670 nM
same,TGI,SK-MEL-28 melanoma,3030 nM
same,GI50,EKVX NSCLC,374 nM
same,TGI,EKVX NSCLC,1650 nM
same,GI50,BT-549 breast,1300 nM
same,TGI,BT-549 breast,2590 nM
same,GI50,SN12C renal,1090 nM
same,TGI,SN12C renal,2610 nM
same,GI50,MOLT-4 leukemia,1500 nM
same,TGI,MOLT-4 leukemia,2820 nM
same,GI50,NCI-H226 lung,1130 nM
same,TGI,NCI-H226 lung,2520 nM
same,GI50,T-47D breast,1110 nM
same,TGI,T-47D breast,2320 nM
same,GI50,RPMI-8226 leukemia,1160 nM
same,TGI,RPMI-8226 leukemia,2380 nM
same,GI50,COLO 205 colon,1720 nM
same,TGI,COLO 205 colon,3100 nM
